# Assays:
# [1] = target: Y641F mutant PRC2 enzyme (EZH2 Y641F) (Homo sapiens (Human), UniProt Q15910, Y641F); experiment: PRC2 enzyme assay on peptide substrate, EZH2 Y641F mutant; type: biochemical; settings: EZH2 Y641F PRC2, H3K27me2 peptide substrate
# Source text: (§1) Protocol for Wild-Type and Mutant PRC2 Enzyme Assays
# (§2) Peptides representative of human histone H3 residues 21-44 containing either an unmodified lysine 27 (H3K27me0) or dimethylated lysine 27 (H3K27me2) are synthesized with a C-terminal G(K-biotin) linker-affinity tag motif and a C-terminal amide cap by 21st Century Biochemicals. […] The sequences are listed below.
# (§3) Human PRC2 enzymes are purified as 4-component enzyme complexes co-expressed in Spodoptera frugiperda (sf9) cells using a baculovirus expression system. […] The EED subunit contains an N-terminal FLAG tag that is used to purify the entire 4-component complex from sf9 cell lysates.
# (§4) The assays are all performed in a buffer consisting of 20 mM bicine (pH=7.6), 0.5 mM DTT, 0.005% BSG and 0.002% Tween20, prepared on the day of use. Compounds in 100% DMSO (1 μL) are spotted into polypropylene 384-well V-bottom plates (Greiner) using a Platemate 2×3 outfitted with a 384-channel pipet head (Thermo). DMSO (1 μL) is added to columns 11, 12, 23, 24, rows A-H for the maximum signal control, and SAH, a known product and inhibitor of PRC2 (1 μL) is added to columns 11, 12, 23, 24, rows I-P for the minimum signal control. A cocktail (4 μL) containing the wild-type PRC2 enzyme and H3K27me0 peptide or any of the Y641 mutant enzymes and H3K27me2 peptide is added by Multidrop Combi (Thermo). The compounds are allowed to incubate with PRC2 for 30 min at 25° C., then a cocktail (10 μL) containing a mixture of non-radioactive and ^3H-SAM is added to initiate the reaction (final volume=[…]). In all cases, the final concentrations are as follows: wild-type or mutant PRC2 enzyme was 4 nM, SAH in the minimum signal control wells was 1 mM and the DMSO concentration was 1%. The assays are stopped by the addition of non-radioactive SAM (10 μL) to a final concentration of 600 μM, which dilutes the ^3H-SAM to a level where its incorporation into the peptide substrate is no longer detectable. 5 μL of the reaction in the 384-well polypropylene plate is then transferred to a 384-well Flashplate and the biotinylated peptides are allowed to bind to the streptavidin surface for at least 1 h before being washed three times with 0.1% Tween20 in a Biotek ELx405 plate washer. The plates are then read in a PerkinElmer TopCount platereader to measure the quantity of ^3H-labeled peptide bound to the Flashplate surface, measured as disintegrations per minute (dpm) or alternatively, referred to as counts per minute (cpm).
# (§5) Where top and bottom are the normally allowed to float, but may be fixed at 100 or 0 respectively in a 3-parameter fit. The Hill Coefficient normally allowed to float but may also be fixed at 1 in a 3-parameter fit. Y is the % inhibition and X is the compound concentration.
# [2] = target: wild-type PRC2 enzyme (WT EZH2) (Homo sapiens (Human), UniProt Q15910); experiment: PRC2 enzyme assay on peptide substrate, wild-type EZH2; type: biochemical; settings: wild-type PRC2, H3K27me0 peptide substrate
# Source text: as §1, §2, §3, §4, §5
# wild-type PRC2 enzyme (WT EZH2), sequence (Q15910 whole entry): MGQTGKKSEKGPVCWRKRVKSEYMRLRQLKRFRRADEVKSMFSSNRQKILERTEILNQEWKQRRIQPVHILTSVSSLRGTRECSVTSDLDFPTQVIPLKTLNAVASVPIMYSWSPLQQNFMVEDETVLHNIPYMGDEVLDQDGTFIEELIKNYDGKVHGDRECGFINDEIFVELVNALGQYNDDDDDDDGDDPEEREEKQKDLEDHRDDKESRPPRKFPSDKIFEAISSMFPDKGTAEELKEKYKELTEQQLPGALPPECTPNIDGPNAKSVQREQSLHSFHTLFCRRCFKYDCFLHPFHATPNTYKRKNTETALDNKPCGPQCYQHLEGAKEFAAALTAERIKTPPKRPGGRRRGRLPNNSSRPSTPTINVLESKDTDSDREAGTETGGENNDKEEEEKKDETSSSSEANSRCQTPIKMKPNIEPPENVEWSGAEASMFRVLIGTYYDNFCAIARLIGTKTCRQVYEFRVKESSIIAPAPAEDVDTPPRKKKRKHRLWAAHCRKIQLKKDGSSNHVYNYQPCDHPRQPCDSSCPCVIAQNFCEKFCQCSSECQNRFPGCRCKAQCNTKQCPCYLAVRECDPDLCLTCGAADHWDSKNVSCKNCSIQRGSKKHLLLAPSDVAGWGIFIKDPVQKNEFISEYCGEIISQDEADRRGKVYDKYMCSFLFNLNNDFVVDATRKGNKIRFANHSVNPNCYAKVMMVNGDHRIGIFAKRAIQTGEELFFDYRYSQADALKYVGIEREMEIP
# wild-type PRC2 enzyme (WT EZH2), sequence (O75530 whole entry partner): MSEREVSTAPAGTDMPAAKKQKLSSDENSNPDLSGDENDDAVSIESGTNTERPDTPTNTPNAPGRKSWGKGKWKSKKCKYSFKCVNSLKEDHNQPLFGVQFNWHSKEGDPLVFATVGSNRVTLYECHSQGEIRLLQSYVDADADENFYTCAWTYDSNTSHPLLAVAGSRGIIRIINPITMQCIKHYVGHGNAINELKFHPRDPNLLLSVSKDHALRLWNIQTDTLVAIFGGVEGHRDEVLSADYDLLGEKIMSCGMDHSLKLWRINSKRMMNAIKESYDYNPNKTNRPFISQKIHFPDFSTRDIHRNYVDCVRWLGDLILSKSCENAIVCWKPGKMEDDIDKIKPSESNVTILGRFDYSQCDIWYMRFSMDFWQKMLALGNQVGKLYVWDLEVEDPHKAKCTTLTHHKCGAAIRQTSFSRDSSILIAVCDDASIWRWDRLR
# wild-type PRC2 enzyme (WT EZH2), sequence (Q15022 whole entry partner): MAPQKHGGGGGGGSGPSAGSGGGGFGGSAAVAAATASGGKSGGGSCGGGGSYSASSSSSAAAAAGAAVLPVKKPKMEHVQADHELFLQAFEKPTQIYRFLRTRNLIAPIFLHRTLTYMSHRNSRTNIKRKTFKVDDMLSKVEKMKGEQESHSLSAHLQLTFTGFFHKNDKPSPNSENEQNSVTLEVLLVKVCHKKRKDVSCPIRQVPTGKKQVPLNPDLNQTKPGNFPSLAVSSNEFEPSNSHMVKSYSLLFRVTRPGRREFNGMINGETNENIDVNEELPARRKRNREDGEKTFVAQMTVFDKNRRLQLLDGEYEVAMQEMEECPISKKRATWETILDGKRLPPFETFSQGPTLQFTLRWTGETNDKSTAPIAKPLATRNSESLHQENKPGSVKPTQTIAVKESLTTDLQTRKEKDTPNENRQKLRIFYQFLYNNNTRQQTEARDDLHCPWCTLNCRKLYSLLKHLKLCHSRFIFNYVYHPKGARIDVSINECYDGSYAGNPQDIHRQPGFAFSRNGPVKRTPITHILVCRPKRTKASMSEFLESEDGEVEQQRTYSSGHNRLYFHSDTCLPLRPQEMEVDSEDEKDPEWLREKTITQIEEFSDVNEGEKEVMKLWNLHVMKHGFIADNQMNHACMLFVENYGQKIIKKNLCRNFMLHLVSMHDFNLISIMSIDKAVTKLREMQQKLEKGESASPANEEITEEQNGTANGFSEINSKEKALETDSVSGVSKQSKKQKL
# wild-type PRC2 enzyme (WT EZH2), sequence (Q09028 whole entry partner): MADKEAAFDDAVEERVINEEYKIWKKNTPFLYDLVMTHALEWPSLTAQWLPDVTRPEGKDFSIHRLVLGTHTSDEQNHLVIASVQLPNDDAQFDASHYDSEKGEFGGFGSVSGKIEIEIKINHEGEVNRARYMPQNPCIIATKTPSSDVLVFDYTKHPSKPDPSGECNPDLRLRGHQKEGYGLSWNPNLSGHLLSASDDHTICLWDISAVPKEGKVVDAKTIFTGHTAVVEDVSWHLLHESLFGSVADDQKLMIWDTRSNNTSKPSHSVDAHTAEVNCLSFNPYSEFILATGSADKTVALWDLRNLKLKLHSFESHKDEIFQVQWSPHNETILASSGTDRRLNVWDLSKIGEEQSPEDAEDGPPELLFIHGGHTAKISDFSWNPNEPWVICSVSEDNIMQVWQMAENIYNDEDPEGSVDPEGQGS
# Y641F mutant PRC2 enzyme (EZH2 Y641F), sequence (Q15910 whole entry Y641F): as the sequence (Q15910 whole entry) above, with Y641F counted along it
# Y641F mutant PRC2 enzyme (EZH2 Y641F), sequence (O75530 whole entry partner): as the sequence (O75530 whole entry partner) above
# Y641F mutant PRC2 enzyme (EZH2 Y641F), sequence (Q15022 whole entry partner): as the sequence (Q15022 whole entry partner) above
# Y641F mutant PRC2 enzyme (EZH2 Y641F), sequence (Q09028 whole entry partner): as the sequence (Q09028 whole entry partner) above
Structure (SMILES),IC50 [1],IC50 [2]
"CCC(C)n1cc(C)c2c(C(=O)NCc3c(C)n(C)[nH]c3=O)cc(-c3ccc(N4CCNCC4)nc3)cc21 (stereo not shown) [Compound 4, 1-(sec-butyl)-N-((1,5-dimethyl-3-oxo-2,3-dihydro-1H-pyrazol-4-yl)methyl)-3-methyl-6-(6-(piperazin-1-yl)pyridin-3-yl)-1H-indole-4-carboxamide]",1.1 µM,5.63 µM
"Cc1c(CNC(=O)c2c(C)n(C(C)C3CCOCC3)c3ccccc23)c(=O)[nH]n1C (stereo not shown) [Compound 2, N-((1,5-dimethyl-3-oxo-2,3-dihydro-1H-pyrazol-4-yl)methyl)-2-methyl-1-(1-(tetrahydro-2H-pyran-4-yl)ethyl)-1H-indole-3-carboxamide]",> 50 µM,> 50 µM
"CCC(C)n1cc(C)c2c(C(=O)NCc3c(OC)nn(C)c3C)cc(-c3ccc(N4CCNCC4)nc3)cc21 (stereo not shown) [Compound 3, 1-(sec-butyl)-N-((3-methoxy-1,5-dimethyl-1H-pyrazol-4-yl)methyl)-3-methyl-6-(6-(piperazin-1-yl)pyridin-3-yl)-1H-indole-4-carboxamide]",0.548 µM,4.33 µM
"COc1nn(C)c(C)c1CNC(=O)c1c(C)n(C(C)C2CCOCC2)c2ccccc12 (stereo not shown) [Compound 1, N-((3-methoxy-1,5-dimethyl-1H-pyrazol-4-yl)methyl)-2-methyl-1-(1-(tetrahydro-2H-pyran-4-yl)ethyl)-1H-indole-3-carboxamide]",28 µM,> 50 µM
"CCC(C)n1cc(C)c2c(C(=O)NCc3c(OC)nn(CC)c3C)cc(-c3ccc(N4CCNCC4)nc3)cc21 (stereo not shown) [Compound 5, 1-(sec-butyl)-N-((1-ethyl-3-methoxy-5-methyl-1H-pyrazol-4-yl)methyl)-3-methyl-6-(6-(piperazin-1-yl)pyridin-3-yl)-1H-indole-4-carboxamide]",1.99 µM,22 µM

# Source: patent US9624205B2, “Substituted 6,5-fused bicyclic heteroaryl compounds” (Epizyme, Inc., priority 2013, dated 2017)
